Measurements published in ChEMBL document CHEMBL1201862, “PubChem BioAssay data set” (2004).
Active and inactive are the calls of the source.

Assays:
[1] = target: Bifunctional protein GlmU (Mycobacterium tuberculosis, UniProt P9WMN3); assay: Inhibitors of Mycobacterial Glucosamine-1-phosphate acetyl transferase (GlmU). Secondary screen.; design: species or system Mycobacterium tuberculosis H37Rv
[2] = target: T1, Long-chain-fatty-acid--AMP ligase FadD28 (Mycobacterium tuberculosis, UniProt P9WQ59); assay: Fluorescence polarization aasay to screen for inhibitors that compete for the binding of FadD28 to a bisubstrate Measured in Biochemical System Using Plate Reader - 2147-01_Inhibitor_Dose_CherryPick_Activity.; type: functional, Mycobacterium tuberculosis H37Rv
T1 sequence (P9WQ59 whole entry): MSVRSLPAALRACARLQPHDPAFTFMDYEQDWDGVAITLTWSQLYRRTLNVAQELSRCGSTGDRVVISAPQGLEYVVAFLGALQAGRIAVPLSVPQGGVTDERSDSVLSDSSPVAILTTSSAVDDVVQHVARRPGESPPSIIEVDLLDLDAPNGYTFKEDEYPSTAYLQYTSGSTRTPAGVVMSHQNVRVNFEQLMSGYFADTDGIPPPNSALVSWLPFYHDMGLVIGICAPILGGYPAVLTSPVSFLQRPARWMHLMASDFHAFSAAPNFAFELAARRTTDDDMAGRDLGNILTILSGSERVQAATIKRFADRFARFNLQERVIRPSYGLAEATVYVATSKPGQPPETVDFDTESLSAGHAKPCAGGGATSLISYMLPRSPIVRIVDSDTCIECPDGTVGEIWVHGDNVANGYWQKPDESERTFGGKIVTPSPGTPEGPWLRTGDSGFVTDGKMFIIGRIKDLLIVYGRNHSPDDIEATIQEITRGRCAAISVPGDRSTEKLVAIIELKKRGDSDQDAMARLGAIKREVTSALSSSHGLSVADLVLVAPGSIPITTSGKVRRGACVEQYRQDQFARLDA

Genome polyprotein = Genome polyprotein (Hepatitis C virus, UniProt Q2Q167); assay: disruption of hepatitis C core self-association – biochemical, TR-FRET, dose response (AID 2159); design: species or system Hepacivirus hominis;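 further: blocks dimerization of HCV core protein measured by TR-FRET between tagged core106 pairs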
Sequence of Genome polyprotein (Q2Q167 whole entry): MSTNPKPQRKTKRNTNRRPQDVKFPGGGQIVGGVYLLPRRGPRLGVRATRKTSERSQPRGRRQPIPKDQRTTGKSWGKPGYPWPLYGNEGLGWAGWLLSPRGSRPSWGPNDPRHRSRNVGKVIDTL

[3] = antiviral protection against BTV-induced cell death – arbovirus, BSR cells, confirmation (AID 1250); type: functional;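 further: protection from viral cytopathic effect measured as cell viability by ATP luminescence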
[4] = tested on: Streptococcus sp. 'group A'; assay: Streptococcus pyogenes SK(-)GAS viability under kanamycin – luminescence, BacTiterGlo, confirmation, counter-screen for streptokinase expression inhibitor project, dose response (AID 1900); type: functional, organism-based
Streptokinase A = target: T2, Streptokinase A (Streptococcus pyogenes serotype M1, UniProt P10520); assay: viability-normalized secreted streptokinase activity reduction – plasminogen activation absorbance, OD405, dose response (AID 1914); type: functional, Streptococcus pyogenes M1 GAS;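 further: secreted streptokinase activity via plasminogen activation per viability signal from cell pellet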
T2 sequence (P10520 whole entry): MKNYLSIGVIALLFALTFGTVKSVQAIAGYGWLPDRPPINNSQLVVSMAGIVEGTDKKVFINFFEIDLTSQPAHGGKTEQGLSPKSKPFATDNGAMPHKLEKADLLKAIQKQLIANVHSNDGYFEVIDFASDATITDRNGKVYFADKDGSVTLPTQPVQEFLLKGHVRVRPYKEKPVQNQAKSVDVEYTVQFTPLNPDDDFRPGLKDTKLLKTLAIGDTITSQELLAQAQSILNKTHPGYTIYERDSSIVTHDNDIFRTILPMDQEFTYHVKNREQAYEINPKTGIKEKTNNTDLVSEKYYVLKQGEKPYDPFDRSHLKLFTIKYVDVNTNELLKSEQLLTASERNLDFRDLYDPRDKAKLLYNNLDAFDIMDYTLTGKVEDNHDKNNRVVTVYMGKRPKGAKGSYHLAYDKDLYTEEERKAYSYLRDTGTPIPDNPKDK

[5] = target: T3, Mannose-6-phosphate isomerase (Homo sapiens, UniProt P34949); assay: MPI enzyme activity inhibition – biochemical, fluorescence intensity, coupled assay, primary screen (AID 1209)
T3 sequence (P34949 whole entry): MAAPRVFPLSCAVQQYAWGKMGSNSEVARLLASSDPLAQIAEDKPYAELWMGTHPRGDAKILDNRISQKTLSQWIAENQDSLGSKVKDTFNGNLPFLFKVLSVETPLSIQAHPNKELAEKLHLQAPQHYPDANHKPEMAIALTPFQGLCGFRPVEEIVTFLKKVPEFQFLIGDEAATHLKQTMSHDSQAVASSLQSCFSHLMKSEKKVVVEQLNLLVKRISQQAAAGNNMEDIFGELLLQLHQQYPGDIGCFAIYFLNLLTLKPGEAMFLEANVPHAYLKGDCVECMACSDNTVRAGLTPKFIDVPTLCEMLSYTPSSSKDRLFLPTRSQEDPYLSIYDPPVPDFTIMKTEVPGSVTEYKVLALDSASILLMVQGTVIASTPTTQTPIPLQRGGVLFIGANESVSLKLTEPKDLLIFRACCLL

Streptococcus = assay: GAS UMAA2166 growth inhibition – luminescence, BacTiterGlo, counter-screen for streptokinase expression inhibitor project, dose response (AID 1915); type: functional, organism-based;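 further: potency for reduction of bacterial viability or growth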
[6] = target: T3, Mannose-6-phosphate isomerase; assay: MPI inhibition at elevated mannose 6-phosphate – biochemical, fluorescence intensity, high mannose 6-phosphate, primary screen (AID 1220)
Estrogen receptor = target: T4, Estrogen receptor (Homo sapiens, UniProt P03372); assay: ERα coactivator recruitment enhancers – biochemical, TR-FRET, ERα LBD, dose response (AID 737)
T4 sequence (P03372 whole entry): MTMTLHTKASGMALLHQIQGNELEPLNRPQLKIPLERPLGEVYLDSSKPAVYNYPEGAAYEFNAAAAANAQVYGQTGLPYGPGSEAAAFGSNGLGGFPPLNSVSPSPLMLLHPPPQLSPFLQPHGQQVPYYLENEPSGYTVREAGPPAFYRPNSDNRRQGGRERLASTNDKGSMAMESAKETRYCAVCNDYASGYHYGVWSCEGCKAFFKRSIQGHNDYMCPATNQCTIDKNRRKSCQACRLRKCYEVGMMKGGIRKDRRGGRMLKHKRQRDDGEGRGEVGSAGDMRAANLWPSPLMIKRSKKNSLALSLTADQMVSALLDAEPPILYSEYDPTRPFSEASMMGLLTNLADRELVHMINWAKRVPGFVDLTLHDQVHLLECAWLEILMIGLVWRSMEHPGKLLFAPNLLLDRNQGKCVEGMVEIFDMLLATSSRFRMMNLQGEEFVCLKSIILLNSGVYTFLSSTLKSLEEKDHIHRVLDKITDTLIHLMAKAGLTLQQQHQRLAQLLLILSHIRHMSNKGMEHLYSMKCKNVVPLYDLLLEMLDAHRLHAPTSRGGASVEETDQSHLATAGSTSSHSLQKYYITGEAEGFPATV

Protein skinhead-1 = target: T5, Protein skinhead-1 (Caenorhabditis elegans, UniProt P34707); type: functional
T5 sequence (P34707 whole entry): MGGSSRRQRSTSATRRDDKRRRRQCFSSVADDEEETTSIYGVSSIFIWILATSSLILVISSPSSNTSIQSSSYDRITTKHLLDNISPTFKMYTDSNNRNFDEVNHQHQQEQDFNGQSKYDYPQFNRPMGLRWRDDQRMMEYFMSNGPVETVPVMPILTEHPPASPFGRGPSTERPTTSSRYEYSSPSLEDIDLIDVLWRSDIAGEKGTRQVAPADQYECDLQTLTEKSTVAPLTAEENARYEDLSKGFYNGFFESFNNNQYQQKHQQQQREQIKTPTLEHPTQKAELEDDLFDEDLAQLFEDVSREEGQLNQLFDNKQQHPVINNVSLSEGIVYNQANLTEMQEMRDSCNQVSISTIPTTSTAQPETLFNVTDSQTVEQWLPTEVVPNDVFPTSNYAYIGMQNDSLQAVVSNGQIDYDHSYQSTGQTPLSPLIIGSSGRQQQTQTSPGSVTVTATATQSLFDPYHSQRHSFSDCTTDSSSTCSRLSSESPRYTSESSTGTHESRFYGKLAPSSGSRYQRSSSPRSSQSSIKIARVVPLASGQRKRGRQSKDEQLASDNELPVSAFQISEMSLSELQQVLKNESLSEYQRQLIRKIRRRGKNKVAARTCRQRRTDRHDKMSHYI

[7] = blockers of bursicon-stimulated LGR2 cAMP reporter – cell-based, HEK293, CRE-luciferase reporter, cherry pick, set 2, dose response (AID 743343); type: functional;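 further: transfected cells were stimulated with diluted bursicon conditioned medium after compound addition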
[8] = blockade of melanocortin 4 receptor signaling – cell-based, plate reader, cherry pick, counter-screen for LGR2 antagonist project, dose response (AID 743444); type: functional;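 further: transfected HEK 293 cells stimulated with alpha-MSH peptide; potency of inhibitors of the alpha-MSH evoked signal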
[9] = target: T6, Aryl hydrocarbon receptor (Homo sapiens, UniProt P35869); assay: Luminescence-based cell-based high throughput dose response assay for activators of the Aryl Hydrocarbon Receptor (AHR). [Related pubchem assays: 2796 (Primary screen (AHR activators in singlicate)), 2845 (Confirmation screen (AHR activators in triplicate)), 434939 (Counterscreen (PXR activators in triplicate)), 2804 (Summary (AHR activators))]; type: ADME
T6 sequence (P35869 whole entry): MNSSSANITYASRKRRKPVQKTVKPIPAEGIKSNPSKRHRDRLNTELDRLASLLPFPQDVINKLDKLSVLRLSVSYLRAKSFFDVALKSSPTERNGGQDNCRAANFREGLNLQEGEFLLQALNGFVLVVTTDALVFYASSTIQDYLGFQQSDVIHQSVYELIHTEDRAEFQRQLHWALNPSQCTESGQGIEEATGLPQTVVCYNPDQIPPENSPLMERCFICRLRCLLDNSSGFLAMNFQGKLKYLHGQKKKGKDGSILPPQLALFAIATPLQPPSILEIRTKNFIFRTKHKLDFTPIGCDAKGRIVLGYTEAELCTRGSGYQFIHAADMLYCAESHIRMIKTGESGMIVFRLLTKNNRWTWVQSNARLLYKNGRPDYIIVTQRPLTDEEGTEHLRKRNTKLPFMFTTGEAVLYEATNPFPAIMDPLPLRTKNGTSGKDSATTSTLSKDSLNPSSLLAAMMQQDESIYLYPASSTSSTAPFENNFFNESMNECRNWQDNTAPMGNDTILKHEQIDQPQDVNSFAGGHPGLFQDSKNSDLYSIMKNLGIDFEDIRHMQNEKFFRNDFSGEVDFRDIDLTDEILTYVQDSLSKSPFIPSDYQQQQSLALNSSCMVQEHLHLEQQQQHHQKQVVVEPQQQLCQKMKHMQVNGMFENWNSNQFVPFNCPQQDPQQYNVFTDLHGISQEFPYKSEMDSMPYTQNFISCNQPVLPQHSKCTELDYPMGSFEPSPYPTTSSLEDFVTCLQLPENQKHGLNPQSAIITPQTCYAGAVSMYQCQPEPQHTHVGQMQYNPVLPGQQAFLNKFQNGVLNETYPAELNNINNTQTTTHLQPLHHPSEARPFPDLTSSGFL

[10] = viability loss in THP-1 monocytes – THP-1 cells, cytotoxicity control for Vif-APOBEC3G degradation inhibitor project, dose response (AID 1117359); type: functional; details: THP-1

Sequence of Bifunctional protein GlmU (P9WMN3 whole entry): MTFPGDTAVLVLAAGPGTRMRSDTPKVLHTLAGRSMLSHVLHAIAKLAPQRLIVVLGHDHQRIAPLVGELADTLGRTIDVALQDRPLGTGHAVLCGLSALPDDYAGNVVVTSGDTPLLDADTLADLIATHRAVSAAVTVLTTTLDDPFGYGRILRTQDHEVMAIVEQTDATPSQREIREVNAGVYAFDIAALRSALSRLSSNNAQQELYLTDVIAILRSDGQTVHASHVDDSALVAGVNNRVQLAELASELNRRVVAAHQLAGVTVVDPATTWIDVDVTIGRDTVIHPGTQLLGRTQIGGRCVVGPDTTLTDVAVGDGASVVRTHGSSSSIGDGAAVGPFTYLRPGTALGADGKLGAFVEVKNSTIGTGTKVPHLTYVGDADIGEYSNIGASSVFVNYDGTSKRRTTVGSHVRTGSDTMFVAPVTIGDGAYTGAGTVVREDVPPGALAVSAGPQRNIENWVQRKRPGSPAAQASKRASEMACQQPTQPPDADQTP

Question: With `Cc1cc(N)n(-c2ccc(Oc3ccccc3)c(S(=O)(=O)O)c2)n1` as the compound, how does the IC50 [1] read?
Answer: The IC50 was 123 µM (active).

Question: And the AC50 [2]?
Answer: The AC50 was > 100 µM (inactive).

Question: Which IC50 (Genome polyprotein) does the source give for `COc1ccc(-n2c(-c3ccc(Br)cc3)nc(=S)c3c2CCCC3)cc1` here?
Answer: Its IC50 is > 49.8 µM (not active).

Question: For `O=c1oc(-c2cccs2)nc2scc(-c3cccs3)c12`, which IC50 [3] is on record?
Answer: Its IC50 is 24.2 µM (active).

Question: Which results are given for `Cc1ccc(/N=C/c2cccc(O)c2O)c(C)c1`?
Answer: EC50 [4]: > 150 µM (not active); EC50 (Streptokinase A): > 150 µM (not active); IC50 [5]: 23.3 µM (active); EC50 (Streptococcus): 7.41 µM (active); IC50 [6]: 14 µM (active)

Question: What does the source list for `O=C(Nc1cccnc1)c1cc(-c2ccc3c(c2)OCO3)on1`?
Answer: EC50 (Estrogen receptor): 12.9 µM (not active); IC50 (Protein skinhead-1): > 100 µM (inactive); AC50 [7]: 5.5 µM (active); AC50 [8]: 5.56 µM (active)

Question: Which results are given for `Cc1cc(Nc2ccc(Br)cc2)n2nc(C)nc2n1`?
Answer: EC50 [9]: 0.117 µM (active); CC50 [10]: > 40 µM (active)
